The structures appear in SMILES notation.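 Protocol summary: plate cells (96-well), add compound at 5 concentrations, incubate 48 h, interpolate endpoints linearly. At the GI50, growth is halved.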 The source made the active and inactive calls. Cut-off read from the data, not from the text of the source: active = GI50 up to about 1.1 µM and inactive = higher.

Test systems include HCC 2998; CCRF-CEM; UO-31; SK-OV-3; EKVX; SK-MEL-5; KM12; OVCAR-4; SK-MEL-2; COLO 205; HOP-62; NCI-H23; SF-268; CAKI-1; MOLT-4; SNB-19; SF-539; A549; LOX IMVI; UACC-62.
Assay in all cases: inhibition of tumour cell growth, NCI panel, 48 h

Turning to `Cc1cc(S(=O)(=O)Nc2nc(N)nc(N(C)C)n2)c(S)cc1Cl`, the GI50 in the test on HCC 2998, in the test on CCRF-CEM, with UO-31, with SK-OV-3, in the test on EKVX and in the test on SK-MEL-5 was > 10 µM (inactive) in each case. In addition, the GI50 in the test with KM12, in the test with OVCAR-4, in the test on SK-MEL-2, in the test with COLO 205, in the test on HOP-62 and in the test with NCI-H23 was > 10 µM (inactive) each time. Further, the GI50 in the test on SF-268, in the test with CAKI-1, with MOLT-4, in the test with SNB-19, with SF-539 and in the test on A549 was > 10 µM (inactive) throughout. Moreover, the GI50 in the test on LOX IMVI is > 10 µM (inactive).

As for `Nc1nc(Cl)cc(NCC2(O)CCCC2)n1`, the GI50 in the test with HCC 2998 was > 100 µM (inactive); in the test with CCRF-CEM, > 100 µM (inactive); with UO-31 it was 78.9 µM (inactive); in the test with SK-OV-3 it was > 100 µM (inactive); in the test with EKVX, > 100 µM (inactive); in the test on SK-MEL-5, > 100 µM (inactive). The GI50 with KM12, in the test with OVCAR-4, in the test on SK-MEL-2, in the test on COLO 205, with HOP-62 and in the test with NCI-H23 was > 100 µM (inactive) in each case. In addition, the GI50 with SF-268, in the test on UACC-62, with CAKI-1, in the test on MOLT-4, in the test on SF-539 and with A549 was > 100 µM (inactive) in each case. Moreover, in the test on LOX IMVI, the GI50 is > 100 µM (inactive).

As to `CSc1[nH]nc(N)c1C(=O)Nc1ccc(Cl)cc1`, the GI50 was 99.8 µM (inactive) in the test with HCC 2998; 27 µM (inactive) in the test with CCRF-CEM; 33 µM (inactive) in the test with UO-31; > 100 µM (inactive) with SK-OV-3; > 100 µM (inactive) in the test with EKVX; > 100 µM (inactive) in the test with SK-MEL-5. In addition, the GI50 in the test on KM12 was 55.6 µM (inactive); with OVCAR-4 it was 50.5 µM (inactive); with SK-MEL-2, > 100 µM (inactive); in the test with COLO 205, 99.5 µM (inactive); with NCI-H23, 36.6 µM (inactive); in the test on SF-268 it was 79.6 µM (inactive). Besides, the GI50 in the test on UACC-62 is 90.6 µM (inactive); in the test on CAKI-1, 46.2 µM (inactive); in the test with MOLT-4, 51.6 µM (inactive); with SNB-19 it was 66.5 µM (inactive); in the test on SF-539, 66.2 µM (inactive); in the test on A549, 48.4 µM (inactive). Also, in the test on LOX IMVI, the GI50 was 76.9 µM (inactive).

Turning to `CCOC(=O)C(=O)/C(=C/n1c(=S)[nH]c2ccc([N+](=O)[O-])cc21)C(=O)OCC`, the GI50 with HCC 2998 was > 100 µM (inactive); in the test on CCRF-CEM, > 100 µM (inactive); in the test with UO-31, > 100 µM (inactive); in the test on SK-OV-3, > 100 µM (inactive); in the test with SK-MEL-5, 65.5 µM (inactive); in the test on KM12 it was > 100 µM (inactive). Also, the GI50 with OVCAR-4, in the test on SK-MEL-2, in the test with COLO 205, in the test with HOP-62, with NCI-H23 and in the test with SF-268 was > 100 µM (inactive) throughout. The GI50 in the test on UACC-62, with CAKI-1, in the test with MOLT-4, with SNB-19, with SF-539 and in the test on A549 was > 100 µM (inactive) each time. The GI50 in the test on LOX IMVI was > 100 µM (inactive).

As for `Cc1coc2c1CC1OC1(C)CCC1OC1(C)C2` (centres undefined), the GI50 with HCC 2998, in the test with CCRF-CEM, with UO-31, in the test with SK-OV-3, in the test on EKVX and in the test with SK-MEL-5 was > 100 µM (inactive) throughout. Further, the GI50 with KM12, in the test on OVCAR-4, in the test on SK-MEL-2, with COLO 205, in the test with HOP-62 and in the test with NCI-H23 was > 100 µM (inactive) in each case. Besides, the GI50 in the test on SF-268, in the test on UACC-62, in the test with CAKI-1, in the test with MOLT-4, with SNB-19 and in the test on SF-539 was > 100 µM (inactive) throughout. In addition, the GI50 in the test with A549 and with LOX IMVI was > 100 µM (inactive) in each case.

On to `CCS(=O)(=O)CCn1cnc2c1c(=O)n(C)c(=O)n2C`, for which the GI50 with HCC 2998, in the test on CCRF-CEM, in the test with UO-31, in the test on EKVX, in the test with SK-MEL-5 and with KM12 was > 100 µM (inactive) in each case. The GI50 in the test with OVCAR-4, with SK-MEL-2, with COLO 205, with HOP-62, in the test with NCI-H23 and in the test on SF-268 was > 100 µM (inactive) each time. Besides, the GI50 with UACC-62, in the test on CAKI-1, in the test with MOLT-4, in the test on SNB-19, in the test on SF-539 and in the test with A549 was > 100 µM (inactive) throughout. Moreover, the GI50 in the test with LOX IMVI is > 100 µM (inactive).

Consider `CC(NC(=O)c1c(O)[nH]c(=S)[nH]c1=O)c1ccc([N+](=O)[O-])cc1` (centres undefined), for which the GI50 is 35.8 µM (inactive) in the test on HCC 2998; 40.8 µM (inactive) in the test with CCRF-CEM; > 100 µM (inactive) in the test on UO-31; > 100 µM (inactive) in the test with SK-OV-3; > 100 µM (inactive) in the test with EKVX; > 100 µM (inactive) in the test on SK-MEL-5. Moreover, the GI50 with KM12 is 47.6 µM (inactive); in the test on OVCAR-4 it was 49 µM (inactive); with SK-MEL-2 it was 32.5 µM (inactive); with COLO 205, > 100 µM (inactive); in the test with HOP-62, 58.3 µM (inactive); in the test on NCI-H23 it was 88.1 µM (inactive). Besides, the GI50 in the test with SF-268 is 52.8 µM (inactive); with UACC-62, 77.3 µM (inactive); with CAKI-1, > 100 µM (inactive); with MOLT-4, 29.1 µM (inactive); with SNB-19 it was 57.5 µM (inactive); in the test on SF-539, 82.2 µM (inactive). Also, the values for the GI50 with A549 and with LOX IMVI were > 100 µM (inactive) and 90.8 µM (inactive), respectively.

Take `Nc1ccc(C(=O)NN2C(=O)C(Cl)C2c2ccccc2)cc1` (centres undefined): the GI50 with HCC 2998, with CCRF-CEM, with UO-31, with SK-OV-3, in the test on EKVX and with SK-MEL-5 was > 100 µM (inactive) in each case. Also, the GI50 in the test with KM12, with OVCAR-4, in the test with SK-MEL-2, in the test with COLO 205, in the test on HOP-62 and in the test on NCI-H23 was > 100 µM (inactive) throughout. Also, the GI50 with SF-268, with UACC-62, in the test with CAKI-1, with MOLT-4, in the test with SNB-19 and in the test on SF-539 was > 100 µM (inactive) throughout. The GI50 in the test on A549 and in the test with LOX IMVI was > 100 µM (inactive) throughout.

With `CCOC(=O)C(Cc1ccc(N(CCCl)CCCl)cc1)NC(=O)C(Cc1ccccc1)NC(C)=O` (centres undefined), the GI50 in the test on HCC 2998 is > 1 µM (active); in the test with CCRF-CEM, 0.0353 µM (active); with UO-31, 0.106 µM (active); in the test on SK-OV-3, > 0.296 µM (active); in the test on EKVX, > 0.347 µM (active); in the test on SK-MEL-5, 0.248 µM (active). For the same compound, the GI50 in the test on KM12 is > 0.338 µM (active); with OVCAR-4, 0.0159 µM (active); in the test with SK-MEL-2, > 0.265 µM (active); in the test with COLO 205 it was 0.213 µM (active); with HOP-62 it was 0.275 µM (active); in the test on NCI-H23, 0.162 µM (active). The GI50 was 0.126 µM (active) with SF-268; 0.136 µM (active) with UACC-62; 0.111 µM (active) in the test with CAKI-1; 0.0581 µM (active) with MOLT-4; > 0.38 µM (active) with SNB-19; 0.175 µM (active) in the test on SF-539. Moreover, the GI50 in the test on A549 was > 0.569 µM (active); with LOX IMVI it was 0.111 µM (active).

On to `CC1(C)N/C(=C\[N+](=O)[O-])C(C)(C)N1O`, for which the GI50 in the test with HCC 2998, in the test on CCRF-CEM, with SK-OV-3, with EKVX, with SK-MEL-5 and with KM12 was > 10 µM (inactive) in each case. The GI50 in the test with OVCAR-4, in the test on SK-MEL-2, in the test on COLO 205, with HOP-62, in the test on NCI-H23 and in the test on SF-268 was > 10 µM (inactive) throughout. For the same compound, the GI50 with UACC-62, in the test with CAKI-1, with MOLT-4, in the test on SNB-19, in the test on SF-539 and in the test on A549 was > 10 µM (inactive) in each case. Moreover, the GI50 in the test on LOX IMVI was > 10 µM (inactive).
